{"source": "patent US20110021625A1", "about": "“NEURONAL CELL DEATH INHIBITOR” (LEAD CHEMICAL CO., LTD., priority 2008, published 2011)", "format_in_all_cases": "cell-based, SD rats", "key": {"[1]": {"tested_on": "rat cerebral cortical neurons treated with Aβ(1-42)", "test": "Measurement of dendrite atrophy induced by Aβ(1-42) (MAP2 immunostaining)", "details": "5 μM Aβ(1-42), after 3 days each of Compounds 5, 11, 21, and 22 (1 μM), another 5 days; FIG. 5; vs control group", "method": "Cerebral cortical neurons of SD rats (embryonic day 18) were primary cultured. The neurons were seeded in an 8-well culture slide at a density of 2.6×10^5 cells/cm^2. After 5 days, the neurons were treated with 5 μM Aβ(1-42), and after another 3 days, treated with each of Compounds 5, 11, 21, and 22 (each 1 μM). After another 5 days, immunostaining was carried out. The used primary antibody was a rabbit polyclonal antibody against MAP2 that is as a marker protein of the dendrite (a dilution degree of 500; Chemicon, Temecula, Calif., USA). The used secondary antibody was Alexa Fluor 568 labeled goat anti-rabbit IgG (a dilution degree of 300; Molecular Probes, Carlsbad, Calif., USA). The neurons were observed under a fluorescence microscope AX-80 (Olympus, Tokyo, Japan) and the fluorescence image was obtained. The average length of the dendrites per neuron was measured with Neurocyte Ver. 1.5 (Toyobo, Osaka, Japan). The group without the Aβ(1-42) treatment and the administration of any medical agents was defined as a control group, and the group with the Aβ(1-42) treatment but without the administration of any medical agents was defined as a vehicle group."}, "[2]": {"tested_on": "rat cerebral cortical neurons treated with Aβ(1-42)", "test": "Measurement of axon atrophy induced by Aβ(1-42) (phosphorylated neurofilament H immunostaining)", "details": "5 μM Aβ(1-42), after 3 days each of Compounds 5, 11, 21, and 22 (1 μM), another 5 days; FIG. 6; vs control group", "method": "Cerebral cortical neurons of SD rats (embryonic day 18) were primary cultured. The neurons were seeded in an 8-well culture slide at a density of 2.6×10^5 cells/cm^2, after 5 days, treated with 5 μM Aβ(1-42), and after another 3 days, treated with each of Compounds 5, 11, 21, and 22 (each 1 μM). After another 5 days, immunostaining was carried out. The used primary antibody was a mouse monoclonal antibody against phosphorylated neurofilament H that is a marker protein of the axon (a dilution degree of 500; Sternberger Monoclonals, MD, USA). The used secondary antibody was Alexa Fluor 488 labeled goat anti-[…] IgG (a dilution degree of 300; Molecular Probes, Carlsbad, Calif., USA). The neurons were observed under a fluorescence microscope AX-80 (Olympus, Tokyo, Japan) and the fluorescence image was obtained. The average length of the axons per neuron was measured with Neurocyte Ver. 1.5 (Toyobo, Osaka, Japan). The group without the Aβ(1-42) treatment and the administration of any medical agents was defined as a control group, and the group with the Aβ(1-42) treatment but without the administration of any medical agents was defined as a vehicle group."}, "[3]": {"tested_on": "rat cerebral cortical neurons treated with Aβ(25-35)", "test": "Measurement of neuronal cell death induced by Aβ(25-35) (calcein AM uptake, cell viability)", "details": "10 μM Aβ(25-35) and Compound 11 100 nM, 8-well culture slide, 4 days; FIG. 2; vs control group", "method": "Cerebral cortical neurons of SD rats (embryonic day 18) were primary cultured. The neurons were seeded in a 24-well culture dish at a density of 2.86×10^5 cells/cm^2, and after 3 days, simultaneously treated with 10 μM partial peptide including the 25 to 35-amino acid residue of Aβ (hereinafter called Aβ(25-35)) and each of Compounds 1 to 5 (100 nM). After another 4 days, 6 μM calcein AM was added, the whole was incubated for 40 minutes at 37° C., and the fluorescence intensity at 485 nm was measured so that the uptake of calcein AM into the neurons was calculated to determine the cell viability. The group without the Aβ(25-35) treatment and the administration of any medical agents was defined as a control group, and the group with the Aβ(25-35) treatment but without the administration of any medical agents was defined as a vehicle group.\nSeparately, the neurons were seeded in an 8-well culture slide at a density of 2.14×10^5 cells/cm^2, and after 5 days, simultaneously treated with 10 μM Aβ(25-35) and Compound 11 (100 nM). After another 4 days, 6 μM calcein AM was added, and the whole was incubated for 40 minutes at 37° C. Then the neurons were fixed, and the fluorescence image was obtained under a fluorescence microscope AX-80. The uptake of calcein AM into the neurons was quantitatively analyzed with an ATTO Densitograph (ATTO, Tokyo, Japan) to determine the cell viability. […]"}}}
{"smiles": "COc1cc2c(cc1O)C1(C#N)CCC3(OCCO3)C3=COC(C2)C31", "note": "(stereo not drawn) [Compound 22, 9-hydroxy-8-methoxy-2,3,5a,10c-tetrahydro-1H,6H-5-oxa-3-oxo-acephenanthrylene-10b-carbonitrile ethylene ketal]", "values": [{"measurement": "dendrite outgrowth effect (average length of the dendrites per neuron)", "setting": "[1]", "result": "dendrite outgrowth effect remarkably higher than that of the control group"}, {"measurement": "axon outgrowth effect (average length of the axons per neuron)", "setting": "[2]", "result": "axon outgrowth effect remarkably higher than that of the control group"}]}
{"smiles": "N#CC12CCC3(OCCO3)C3=COC(Cc4ccc(O)cc41)C32", "note": "(stereo not drawn) [Compound 11, 9-hydroxy-2,3,5a,10c-tetrahydro-1H,6H-5-oxa-3-oxo-acephenanthrylene-10b-carbonitrile ethylene ketal]", "values": [{"measurement": "cell viability (uptake of calcein AM, fluorescence image)", "setting": "[3]", "result": "cell viability remarkably higher than that of the control group"}]}
